Results from patent publication US20050101518A1, “Methods of treating conditions associated with an EDG-2 receptor” (priority 2002, published 2005).

Experiments:
Edg-4 receptor = target: T1, Edg-4 receptor (Homo sapiens, UniProt Q9HBW0); assay: Intracellular calcium measurement (FLIPR), LPA-stimulated calcium increases in HTC cells expressing Edg-4; type: cell-based; conditions: FIG. 1 and 2
T1 construct: expressed in transfected cells; host or cells: HTC (rat hepatoma) cells

Edg 6 receptor = target: T2, Edg 6 receptor (Homo sapiens, UniProt O95977); assay: Intracellular calcium measurement (FLIPR), S1P-stimulated calcium increases in HTC cells expressing Edg 6; type: cell-based; conditions: for inhibition of S1P-stimulated calcium increases, Edg 6: FIG. 1 and 2; for IC50: calcium mobilization
T2 construct: expressed in transfected cells; host or cells: HTC (rat hepatoma) cells
T2 sequence (O95977 1-384): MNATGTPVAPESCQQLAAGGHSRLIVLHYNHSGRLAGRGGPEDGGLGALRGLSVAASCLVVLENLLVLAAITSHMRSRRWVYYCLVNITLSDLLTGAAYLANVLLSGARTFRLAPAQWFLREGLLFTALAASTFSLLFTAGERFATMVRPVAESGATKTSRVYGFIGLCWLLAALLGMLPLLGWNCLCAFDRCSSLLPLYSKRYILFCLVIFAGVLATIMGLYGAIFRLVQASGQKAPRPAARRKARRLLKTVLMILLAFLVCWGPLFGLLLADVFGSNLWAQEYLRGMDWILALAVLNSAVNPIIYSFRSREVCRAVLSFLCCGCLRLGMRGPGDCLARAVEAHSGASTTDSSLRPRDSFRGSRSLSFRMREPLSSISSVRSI

Edg 8 receptor = target: T3, Edg 8 receptor (Homo sapiens, UniProt Q9H228); assay: Intracellular calcium measurement (FLIPR), S1P-stimulated calcium increases in HTC cells expressing Edg 8; type: cell-based; conditions: FIG. 1 and 2
T3 construct: expressed in transfected cells; host or cells: HTC (rat hepatoma) cells

Edg-7 receptor = target: T4, Edg-7 receptor (Homo sapiens, UniProt Q9UBY5); assay: Intracellular calcium measurement (FLIPR), LPA-stimulated calcium increases in HTC cells expressing Edg-7; type: cell-based; conditions: FIG. 1 and 2
T4 construct: expressed in transfected cells; host or cells: HTC (rat hepatoma) cells

Edg 1 receptor = target: T5, Edg 1 receptor (Homo sapiens, UniProt P21453); assay: Intracellular calcium measurement (FLIPR), S1P-stimulated calcium increases in HTC cells expressing Edg 1; type: cell-based; conditions: FIG. 1 and 2
T5 construct: expressed in transfected cells; host or cells: HTC (rat hepatoma) cells

[1] = system: A431 human epitheloid carcinoma cells; assay: LPA-stimulated calcium mobilization in A431 human epitheloid carcinoma cells; type: cell-based; conditions: for inhibition of LPA-stimulated calcium mobilization: 10 μM compound, FIG. 6
Description: [The procedure below names another cell line; the source lists this cell line under the same test.] (§1) LPA receptors such as Edg-2, couple to calcium effector pathways, and result in increases in intracellular calcium following receptor activation (An, 1998, J. Cell. Biochem. Supp., 30-31: 147-157). This biological response lends itself to a very efficient, high-throughput screen using a Fluorescence Imaging Plate Reader (FLIPR; Molecular Devices, Sunnyvale, Calif.). The FLIPR system is a real-time, cell-based assay system with continuous fluorescence detection using a cooled CCD camera. The FLIPR system was used to developing an Edg-2 receptor screen. Rat hepatoma cells stably expressing Edg-2 receptor were plated on 384-well plates and loaded with a calcium dye loading kit (Molecular Devices, Sunnyvale, Calif.) for 1 hour at room temperature. Cells were then placed on the FLIPR^384 (Molecular Devices, Sunnyvale, Calif.) and excited by an argon laser at 488 nm. The data for the entire 384-well plate was updated every second. An integrated robotic pipettor allowed for simultaneous compound addition into each individual well in the plate.

[2] = system: Adrenergic α1, non-selective; conditions: significance criteria ≧50% of max stimulation or inhibition; Table 2
Method: (§2) A radioligand binding assay was performed using adrenergic α1 according to the method of Greengrass and Bremner 1979, Eur. J. Pharmacol. 55:323-326. A radioligand binding assay was performed using adrenergic α2 according to the method of Boyajian and Leslie, 1987, J. Pharmacol. Exp. Ther. 241:1092-1098. A redioligand binding assay was performed using adrenergic β according to the method of Feve et al., 1994, Proc. Natl. Acad. Sci. USA 91:5677-5681. A radioligand binding assay was performed using angiotensin AT2 according to the method of Whitebread el al., 1991, Biochem. Biophys. Res. Comm. 181:1365-1371. A radioligand binding assay was performed using calcium channel Type L, dihydropyridine according to the method of Ehlert et al., 1982, Life Sci. 30:2191-2202. A radioligand binding assay was performed using dopamine D2L according to the method of Bunzo et al., 1988, Nature 336:783-787. A radioligand binding assay was performed using endothelin ETA according to the method of Mihara et al., 1994, J. Phrmacol. Exp Ther. 268:1122-1127. A radioligand binding assay was performed using histamine H1 Central according to the method of Hill et al., 1978, J. Neurochem. 31:997-1004. A radioligand binding assay was performed using Muscarinic non-selective, Central according to the method of Luthin and Wolfe, 1984, J. Pharmacol. Exp. Ther. 228:648-655. A radioligand binding assay was performed using serotonin 5-HT1, non-selective according to the method of Middlemiss, 1984, Eur. J. Pharmacol. 101:289-293).

Adrenergic α2 = conditions: significance criteria ≧50% of max stimulation or inhibition; Table 2
Method: as §2

[3] = system: Muscarinic non-selective, Central; conditions: significance criteria ≧50% of max stimulation or inhibition; Table 2
Method: as §2

Endothelin ETA = Endothelin ETA (Homo sapiens, UniProt P25101); conditions: significance criteria ≧50% of max stimulation or inhibition; Table 2
Method: as §2

Histamine H1, Central = Histamine H1, Central (Cavia porcellus, UniProt P31389); conditions: significance criteria ≧50% of max stimulation or inhibition; Table 2
Method: as §2

Adrenergic β = conditions: significance criteria ≧50% of max stimulation or inhibition; Table 2
Method: as §2

[4] = system: Serotonin 5-HT1, non-selective; conditions: significance criteria ≧50% of max stimulation or inhibition; Table 2
Method: as §2

Angiotensin AT2 = Angiotensin AT2 (Homo sapiens, UniProt P50052); conditions: significance criteria ≧50% of max stimulation or inhibition; Table 2
Method: as §2

Dopamine D2L = Dopamine D2L (Homo sapiens, UniProt P14416); conditions: significance criteria ≧50% of max stimulation or inhibition; Table 2
Method: as §2

[5] = system: Calcium Channel Type L, Dihydropyridine; conditions: significance criteria ≧50% of max stimulation or inhibition; Table 2
Method: as §2

Edg-2 receptor = target: T6, Edg-2 receptor (Homo sapiens, UniProt Q92633); assay: Intracellular calcium measurement (FLIPR), LPA-stimulated calcium increases in rat hepatoma (HTC) cells stably expressing Edg-2; type: cell-based; conditions: for inhibition of the Edg 2 receptor: FIG. 1 and 2; for IC50: calcium mobilization, HTC cells expressing Edg 2; for Fold Selective: selectivity for Edg-2 relative to other Edg receptors
T6 construct: expressed in transfected cells
Description: as §1

Edg 5 receptor = target: T7, Edg 5 receptor (Homo sapiens, UniProt O95136); assay: Intracellular calcium measurement (FLIPR), S1P-stimulated calcium increases in HTC cells expressing Edg 5; type: cell-based; conditions: FIG. 1 and 2
T7 construct: expressed in transfected cells; host or cells: HTC (rat hepatoma) cells

[6] = system: various targets tested, including other GPCRs, ion channels, and enzymes; assay: Pharmacology profiling (selectivity assays) at various non-Edg targets; type: binding
Description: Res. Comm. 181:1365-1371. […] Exp Ther. 268:1122-1127. […] 31:997-1004.

Edg 3 receptor = target: T8, Edg 3 receptor (Homo sapiens, UniProt Q99500); assay: Intracellular calcium measurement (FLIPR), S1P-stimulated calcium increases in HTC cells expressing Edg 3; type: cell-based; conditions: FIG. 1 and 2
T8 construct: expressed in transfected cells; host or cells: HTC (rat hepatoma) cells

[7] = system: immortalized ovarian surface epithelial cells; assay: LPA-stimulated calcium mobilization in immortalized ovarian surface epithelial cells; type: cell-based; conditions: 10 μM compound, FIG. 3
Description: [The procedure below names another cell line; the source lists this cell line under the same test.] as §1

[8] = system: forskolin-stimulated cAMP production; assay: cAMP assay: LPA inhibition of forskolin-stimulated cAMP production; type: cell-based; conditions: 10 μM compound; FIG. 4
Method: Cells were plated in a 96 well format. Treatments were performed directly without any serum starvation. The cells were treated with forskolin to induce cAMP production, followed by LPA or S1P doses in the range from 0.1-10 μM in serum free medium. Following a 30-minute incubation period, the cells were lysed and the level of cAMP was determined.
The cAMP assay was performed using the Tropix cAMP-Screen (Applied BioSystems, Foster City, Calif.). The screen is a competitive immunoassay that utilizes a 96 well assay plate precoated with an anti-cAMP antibody. Cell lysates were added to the precoated plate, along with a cAMP-AP conjugate and a secondary anti-cAMP antibody.
Detection was performed using a substrate solution and chemiluminescent readout. The level of chemiluminescence was inversely proportional to the level of cAMP and was calculated from a standard curve.

T6 sequence (Q92633 whole entry): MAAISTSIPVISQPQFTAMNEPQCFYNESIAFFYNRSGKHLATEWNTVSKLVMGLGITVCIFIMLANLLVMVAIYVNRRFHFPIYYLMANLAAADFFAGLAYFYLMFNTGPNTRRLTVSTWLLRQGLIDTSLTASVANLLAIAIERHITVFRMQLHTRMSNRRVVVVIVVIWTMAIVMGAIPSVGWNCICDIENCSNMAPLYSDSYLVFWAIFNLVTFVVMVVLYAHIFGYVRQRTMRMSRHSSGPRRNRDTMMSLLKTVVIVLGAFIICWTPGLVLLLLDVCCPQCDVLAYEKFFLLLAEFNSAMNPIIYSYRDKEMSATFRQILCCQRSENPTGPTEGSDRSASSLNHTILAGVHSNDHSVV
T5 sequence (P21453 whole entry): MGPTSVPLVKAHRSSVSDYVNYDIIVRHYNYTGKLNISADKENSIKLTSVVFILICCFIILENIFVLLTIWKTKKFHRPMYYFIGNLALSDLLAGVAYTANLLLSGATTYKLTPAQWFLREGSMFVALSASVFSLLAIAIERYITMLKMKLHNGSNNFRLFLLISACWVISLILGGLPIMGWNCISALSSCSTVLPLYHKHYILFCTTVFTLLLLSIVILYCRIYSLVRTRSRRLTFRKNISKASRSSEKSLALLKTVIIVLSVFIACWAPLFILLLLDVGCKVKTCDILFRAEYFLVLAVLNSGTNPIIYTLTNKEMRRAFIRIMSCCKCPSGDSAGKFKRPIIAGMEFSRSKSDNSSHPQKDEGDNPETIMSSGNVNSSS
T1 sequence (Q9HBW0 whole entry): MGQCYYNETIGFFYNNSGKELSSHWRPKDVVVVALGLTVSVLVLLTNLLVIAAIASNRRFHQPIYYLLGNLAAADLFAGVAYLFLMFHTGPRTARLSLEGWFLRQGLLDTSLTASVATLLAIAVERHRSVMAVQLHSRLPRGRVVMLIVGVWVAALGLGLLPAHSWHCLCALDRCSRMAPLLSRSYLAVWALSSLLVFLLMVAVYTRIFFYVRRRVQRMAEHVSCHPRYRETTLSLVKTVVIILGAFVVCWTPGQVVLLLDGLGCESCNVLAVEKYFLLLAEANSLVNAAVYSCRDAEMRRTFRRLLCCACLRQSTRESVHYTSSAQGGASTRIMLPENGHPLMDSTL
T7 sequence (O95136 whole entry): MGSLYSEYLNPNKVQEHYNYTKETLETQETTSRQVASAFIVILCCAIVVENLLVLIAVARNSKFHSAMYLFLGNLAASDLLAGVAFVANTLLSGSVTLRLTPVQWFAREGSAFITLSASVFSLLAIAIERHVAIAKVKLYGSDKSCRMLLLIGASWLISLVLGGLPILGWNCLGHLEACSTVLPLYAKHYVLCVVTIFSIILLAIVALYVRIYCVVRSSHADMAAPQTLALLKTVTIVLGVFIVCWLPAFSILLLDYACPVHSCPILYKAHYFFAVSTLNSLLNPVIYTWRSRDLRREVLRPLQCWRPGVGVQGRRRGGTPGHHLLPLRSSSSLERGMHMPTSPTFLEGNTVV
T8 sequence (Q99500 whole entry): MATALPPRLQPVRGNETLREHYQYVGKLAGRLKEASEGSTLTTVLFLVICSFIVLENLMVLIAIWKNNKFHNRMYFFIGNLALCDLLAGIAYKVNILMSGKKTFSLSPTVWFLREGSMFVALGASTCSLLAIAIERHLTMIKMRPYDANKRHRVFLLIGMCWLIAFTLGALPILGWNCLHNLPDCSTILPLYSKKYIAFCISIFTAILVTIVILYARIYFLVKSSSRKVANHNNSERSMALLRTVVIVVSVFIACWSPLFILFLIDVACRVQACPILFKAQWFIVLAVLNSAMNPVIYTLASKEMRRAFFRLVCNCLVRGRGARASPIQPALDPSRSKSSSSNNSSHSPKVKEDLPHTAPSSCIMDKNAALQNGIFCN
T4 sequence (Q9UBY5 whole entry): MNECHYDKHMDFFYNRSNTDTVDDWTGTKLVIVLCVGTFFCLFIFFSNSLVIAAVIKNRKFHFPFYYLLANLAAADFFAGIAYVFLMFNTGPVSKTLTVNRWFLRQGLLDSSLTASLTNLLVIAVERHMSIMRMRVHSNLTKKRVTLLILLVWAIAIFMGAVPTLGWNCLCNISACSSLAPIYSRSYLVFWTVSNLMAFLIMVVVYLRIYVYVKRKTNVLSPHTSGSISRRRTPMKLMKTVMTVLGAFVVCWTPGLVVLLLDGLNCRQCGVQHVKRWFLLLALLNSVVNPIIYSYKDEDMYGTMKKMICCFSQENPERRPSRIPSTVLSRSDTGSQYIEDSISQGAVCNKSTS
T3 sequence (Q9H228 whole entry): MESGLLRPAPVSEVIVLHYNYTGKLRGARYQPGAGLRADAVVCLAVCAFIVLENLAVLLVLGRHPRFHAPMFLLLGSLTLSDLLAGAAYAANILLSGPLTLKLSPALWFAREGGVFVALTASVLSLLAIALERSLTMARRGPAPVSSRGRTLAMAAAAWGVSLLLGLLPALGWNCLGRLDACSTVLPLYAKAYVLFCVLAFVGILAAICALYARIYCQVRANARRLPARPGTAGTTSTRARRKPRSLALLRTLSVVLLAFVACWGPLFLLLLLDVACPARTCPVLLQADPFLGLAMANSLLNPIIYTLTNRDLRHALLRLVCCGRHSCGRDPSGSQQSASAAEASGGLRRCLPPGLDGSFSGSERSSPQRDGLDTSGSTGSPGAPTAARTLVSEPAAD
Sequence of Angiotensin AT2 (P50052 whole entry): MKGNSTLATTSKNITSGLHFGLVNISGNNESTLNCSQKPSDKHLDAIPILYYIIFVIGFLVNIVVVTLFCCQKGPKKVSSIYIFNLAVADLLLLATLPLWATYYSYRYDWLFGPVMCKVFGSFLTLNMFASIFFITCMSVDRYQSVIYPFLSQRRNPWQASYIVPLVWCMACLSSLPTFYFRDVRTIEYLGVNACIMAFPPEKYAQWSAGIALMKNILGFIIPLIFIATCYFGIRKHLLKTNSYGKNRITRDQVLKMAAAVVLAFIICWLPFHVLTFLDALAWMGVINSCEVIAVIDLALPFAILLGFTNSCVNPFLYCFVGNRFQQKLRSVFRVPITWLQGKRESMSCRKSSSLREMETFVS
Sequence of Histamine H1, Central (P31389 whole entry): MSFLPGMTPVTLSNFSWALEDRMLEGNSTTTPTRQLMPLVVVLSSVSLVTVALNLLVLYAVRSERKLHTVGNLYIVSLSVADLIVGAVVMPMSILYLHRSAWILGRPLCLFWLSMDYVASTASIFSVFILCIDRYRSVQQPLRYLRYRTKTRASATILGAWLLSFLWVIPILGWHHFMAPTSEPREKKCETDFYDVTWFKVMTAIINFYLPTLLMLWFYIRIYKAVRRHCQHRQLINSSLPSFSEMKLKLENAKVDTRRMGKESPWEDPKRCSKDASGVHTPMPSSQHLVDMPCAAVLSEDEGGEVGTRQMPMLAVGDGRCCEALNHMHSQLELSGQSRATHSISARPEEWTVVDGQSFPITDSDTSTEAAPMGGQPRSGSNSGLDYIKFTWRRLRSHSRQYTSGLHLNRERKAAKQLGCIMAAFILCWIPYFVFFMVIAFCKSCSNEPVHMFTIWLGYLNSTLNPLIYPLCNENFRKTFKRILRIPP
Sequence of Endothelin ETA (P25101 21-427): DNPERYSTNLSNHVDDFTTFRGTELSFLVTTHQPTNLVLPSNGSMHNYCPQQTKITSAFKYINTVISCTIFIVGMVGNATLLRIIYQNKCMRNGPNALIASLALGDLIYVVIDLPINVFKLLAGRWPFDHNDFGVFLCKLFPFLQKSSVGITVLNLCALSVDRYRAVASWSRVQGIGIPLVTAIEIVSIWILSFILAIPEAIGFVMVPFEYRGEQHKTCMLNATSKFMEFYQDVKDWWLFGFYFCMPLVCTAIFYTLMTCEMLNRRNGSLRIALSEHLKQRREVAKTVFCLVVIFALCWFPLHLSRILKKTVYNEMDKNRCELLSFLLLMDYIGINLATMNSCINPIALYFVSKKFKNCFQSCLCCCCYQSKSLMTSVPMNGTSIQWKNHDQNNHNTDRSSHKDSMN
Sequence of Dopamine D2L (P14416 whole entry): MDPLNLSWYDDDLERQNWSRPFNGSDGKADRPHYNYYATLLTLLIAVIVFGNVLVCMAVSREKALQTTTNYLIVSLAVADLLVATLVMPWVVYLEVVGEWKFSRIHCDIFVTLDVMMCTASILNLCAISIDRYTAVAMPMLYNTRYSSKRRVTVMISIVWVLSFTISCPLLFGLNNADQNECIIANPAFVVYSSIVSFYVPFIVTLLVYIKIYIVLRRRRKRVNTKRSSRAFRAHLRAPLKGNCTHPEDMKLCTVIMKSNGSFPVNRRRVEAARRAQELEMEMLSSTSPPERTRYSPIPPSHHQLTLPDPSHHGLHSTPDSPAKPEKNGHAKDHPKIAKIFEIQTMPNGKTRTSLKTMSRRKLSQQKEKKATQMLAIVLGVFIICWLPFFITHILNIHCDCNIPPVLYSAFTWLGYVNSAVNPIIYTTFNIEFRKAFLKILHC

Row | Compound | inhibition of LPA-stimulated calcium increases, Edg 4 (Edg-4 receptor) | inhibition of S1P-stimulated calcium increases, Edg 6 (Edg 6 receptor) | IC50 (Edg 6 receptor) | inhibition of S1P-stimulated calcium increases, Edg 8 (Edg 8 receptor) | inhibition of LPA-stimulated calcium increases, Edg 7 (Edg-7 receptor) | inhibition of S1P-stimulated calcium increases, Edg 1 (Edg 1 receptor) | inhibition of LPA-stimulated calcium mobilization [1] | inhibition of the Edg 2 receptor (Edg-2 receptor) | IC50 (Edg-2 receptor) | Fold Selective (Edg-2 receptor) | inhibition of S1P-stimulated calcium increases, Edg 5 (Edg 5 receptor) | activity at various targets tested, including other GPCRs, ion channels, and enzymes [6] | inhibition of S1P-stimulated calcium increases, Edg 3 (Edg 3 receptor) | inhibition of LPA-stimulated calcium mobilization [7] | reversal of LPA inhibition of forskolin-stimulated cAMP production [8] | further results
1 | CCOc1ccccc1N1C(=O)CC(N(O)c2ccccc2)C1=O (stereo not shown) [Compound 101, 1-(2-Ethoxyphenyl)-3-(hydroxyphenylamine)-pyrrolidine-2,5-dione] | did not inhibit | did not inhibit | > 20000 nM | did not inhibit | did not inhibit | did not inhibit | inhibition | specifically inhibit | 1400 nM | >14.3 | did not inhibit | did not demonstrate any significant activity | did not inhibit |  |  | inhibition of LPA-stimulated calcium mobilization, dose response to LPA ([1]; varying concentrations of compound (0-10 μM), FIG. 5): inhibition; activity in radioligand binding assay, Adrenergic Alpha 1, non-selective [2]: no significant activity; activity in radioligand binding assay, Adrenergic Alpha 2, non-selective (Adrenergic α2): no significant activity; activity in radioligand binding assay, Muscarinic, non-selective, central [3]: no significant activity; activity in radioligand binding assay, Endothelin ETA (Endothelin ETA): no significant activity; activity in radioligand binding assay, H1 central (Histamine H1, Central): no significant activity; activity in radioligand binding assay, Adrenergic Beta, non-selective (Adrenergic β): no significant activity; activity in radioligand binding assay, Serotonin 5HT1 non-selective [4]: no significant activity; activity in radioligand binding assay, Angiotensin AT2 (Angiotensin AT2): no significant activity; activity in radioligand binding assay, Dopamine D2L (Dopamine D2L): no significant activity; activity in radioligand binding assay, Calcium Channels Type L, DHP [5]: no significant activity
2 | O=C(CC(=O)C(F)(F)F)Nc1cc(-c2ccccc2)n[nH]1 [Compound 201, 4,4,4-trifluoro-3-oxo-N-(5-phenyl-2H-pyrazol-3-yl)butyramide, reference compound] |  |  |  |  |  |  | not |  |  |  |  |  |  | little to no effect | little to no effect | 
3 | CCn1nc(C)c(-c2ccccc2O)c1-c1ccccc1 [Compound 103, 2(1-Ethyl-3-methyl-5-phenyl-1H-pyrazol-4-yl)phenol] | did not inhibit | did not inhibit | > 20000 nM | did not inhibit | did not inhibit | did not inhibit | inhibition | specifically inhibited | 640 nM | >31.3 | did not inhibit | did not demonstrate any significant activity | did not inhibit | almost completely inhibited | reverses the inhibitory effects of LPA | 
4 | CCOc1ccccc1N1C(=O)CC(N(O)c2ccc(F)cc2)C1=O (stereo not shown) [Compound 111, 1-(2-Ethoxyphenyl)-3-[(4-fluorophenyl)hydroxylamino]pyrrolidine-2,5-dione] |  |  |  |  |  |  |  |  |  |  |  |  |  |  |  | melting point: 123 to 124 °C
